Results as given in patent US10793599B2, “MPHOSPH1-derived peptide, and vaccine including same” (OncoTherapy Science, Inc., priority 2015, dated 2020).
Entries after “also recorded” stand apart in the source; their conditions may differ.

Experiments:
[1] = tested on: peptide-pulsed C1R-A11; experiment: In vitro CTL induction, IFN-gamma ELISPOT assay (HLA-A*11:01); format: cell-based, human; conditions: CD8 positive T cells of HLA-A*11:01-positive donors after three stimulations with peptide-pulsed DCs, against peptide-pulsed C1R-A11
Description: (§1) Monocyte-derived dendritic cells (DCs) were used as the antigen-presenting cell to induce a specific cytotoxic T lymphocyte (CTL) response against peptides presented on human leukocyte antigens (HLAs). As already reported in literatures, DCs were generated in vitro (Nakahara S et al., Cancer Res 2003, 63(14): 4112-8). Specifically, peripheral-blood mononuclear cells (PBMCs) collected from healthy volunteers (HLA-A*11:01-positive) with the Ficoll-Paque plus solution (Pharmacia) were seeded in plastic tissue culture dishes (Corning) to let the monocytes in the PBMCs adhere to the dishes. This was cultured in the presence of 1000 IU/ml granulocyte macrophage colony-stimulating factor (R&D System) and 1000 IU/ml interleukin (IL)-4 (R&D System) for seven days. An AIM-V medium (Invitrogen) containing 5% inactivated AB-type serum (ABS) was used as the medium. DCs that were induced to differentiate from monocytes using the cytokines were pulsed with 20 micro-g/ml of each synthesized peptide (37 degrees C., three hours). Peptide pulsing was carried out in an AIM-V medium containing 3 micro-g/ml beta 2-microglobulin. These peptide-pulsed DCs were inactivated by X-ray irradiation (20 Gy), mixed in a 1:20 ratio with autologous CD8 positive T cells obtained by positive selection using the CD8 Positive Isolation Kit (Invitrogen) (1.5×10^4 DCs and 3×10^5 CD8 positive T cells), and cultured in a 48-well plate (Corning). Each well contained 0.5 ml of the 5% ABS/AIM-V medium, and IL-7 (R&D System) was added thereto (final concentration: 10 ng/ml). Two days after the start of the culture, IL-2 (Novartis) was added (final concentration: 20 IU/ml). On day 7 and day 14 of culture, the CD8 positive T cells were further stimulated with peptide-pulsed DCs. The DCs were prepared at the time of use by the same method as above. After day 21 (after three DC stimulations), IFN-gamma production against the peptide-pulsed C1R-A11 was confirmed using human interferon (IFN)-gamma enzyme-linked immunospot (ELISPOT) assay (Tanaka H et al., Br J Cancer 2001, 84(1): 94-9; Umano Y et al., Br J Cancer 2001, 84(8): 1052-7; Uchida N et al., Clin Cancer Res 2004, 10(24): 8577-86; Suda T et al., Cancer Sci 2006, 97(5): 411-9; Watanabe T et al., Cancer Sci 2005, 96(8): 498-506).
(§2) Peptide-pulsed C1R-A11 (1×10^4 cells/well) was prepared as the target cell. The IFN-gamma ELISPOT assay and IFN-gamma ELISA were performed according to the assay kit manufacturer's manual.

[2] = tested on: peptide-pulsed C1R-A33; experiment: In vitro CTL induction, IFN-gamma ELISPOT assay (HLA-A*33:03); format: cell-based, human; conditions: CD8 positive T cells of HLA-A*33:03-positive donors after three stimulations with peptide-pulsed DCs, against peptide-pulsed C1R-A33
Description: as §1, with “(HLA-A*33:03-positive)” for “(HLA-A*11:01-positive)”, “there” for “thereto”, “C1R-A33” for “C1R-A11”, “1052-7:” for “1052-7;”
(§3) Peptide-pulsed C1R-A33 (1×10^4 cells/well) was prepared as the target cell. The IFN-gamma ELISPOT assay and IFN-gamma ELISA assay were performed according to the assay kit manufacturer's manual.

[3] = tested on: peptide-pulsed C1R-A33; experiment: IFN-gamma ELISA of CTL lines and CTL clones (HLA-A*33:03); format: cell-based, human; conditions: listed as MPHOSPH1-A33-10-57
Description: (§4) CTLs were propagated using methods similar to those reported by Riddell et al. (Walter E A et al., N Engl J Med 1995, 333(16): 1038-44; Riddell S R et al., Nat Med 1996, 2(2): 216-23). The CTLs were cultured in 25 ml 5% ABS/AIM-V medium together with two types of Mitomycin C-treated human B lymphoblastoid cell lines (5×10^6 cells/25 ml medium each) and an anti-CD3 antibody (final concentration: 40 ng/ml). On the day after beginning of the culturing, IL-2 (final concentration: 120 IU/ml) was added to the culture. On days 5, 8 and 11, the medium was changed to a 5% ABS/AIM-V medium containing IL-2 (final concentration: 30 IU/ml) (Tanaka H et al., Br J Cancer 2001, 84(1): 94-9; Umano Y et al., Br J Cancer 2001, 84(8): 1052-7; Uchida N et al., Clin Cancer Res 2004, 10(24): 8577-86; Suda T et al., Cancer Sci 2006, 97(5): 411-9; Watanabe T et al., Cancer Sci 2005, 96(8): 498-506).
(§5) After induction of CTLs in vitro, the CTLs were seeded onto 96 round-bottomed microtiter plates (Nalge Nunc International) at 1 cell/well or 10 cells/well. The CTLs were cultured with two types of Mitomycin C-treated human B lymphoblastoid cell lines (1×10^4 cells/well each) in a total of 150 micro-l/well 5% ABS/AIM-V medium with an anti-CD3 antibody (final concentration: 30 ng/ml) and IL-2 (final concentration: 125 IU/ml). Ten days later, 50 micro-l 5% ABS/AIM-V medium containing 500 IU/ml IL-2 was added to the culture.
as §3

[4] = tested on: peptide-pulsed C1R-A11; experiment: IFN-gamma ELISA of CTL lines and CTL clones (HLA-A*11:01); format: cell-based, human; conditions: for peptide-specific IFN-gamma production of CTL clone (ELISA): CTL clone by limiting dilution, against C1R-A11 pulsed with the peptide; for IFN-gamma production by CTL line (ELISA): CTL line against C1R-A11 pulsed with the peptide
Description: as §4
as §5, with “micro-1/well” for “micro-l/well”, “micro-15%” for “micro-l 5%”, “culture. […].” for “culture.”
as §2

[5] = tested on: COS7 cells expressing MPHOSPH1 and HLA-A*11:01; experiment: IFN-gamma production of CTL clone against target cells expressing MPHOSPH1 and HLA-A*11:01; format: cell-based, African green monkey
Description: as §2
A cDNA encoding the MPHOSPH1 or HLA-A*11:01 gene was amplified by PCR. The PCR-amplified product was each incorporated into an expression vector. Either or both of the MPHOSPH1 gene-expressing vector and the HLA-A*11:01 gene-expressing vector were introduced into COS7, which is a cell line negative for HLA, using Lipofectamine 2000 (Invitrogen) following the manufacturer's recommended protocol. On the day after gene introduction, COS7 cells were detached and harvested using versene (Invitrogen), and used as the target cell for confirmation of IFN-gamma production (5×10^4 cells/well).

Q: Which “peptide-specific IFN-gamma production (ELISPOT)” value ([1]; listed as MPHOSPH1-A11-9-96) does the source give for “CILGRLSEK (a peptide derived from MPHOSPH1) [SEQ ID NO: 27]” here?
A: Peptide-specific IFN-gamma production was observed

Q: Which “peptide-specific IFN-gamma production (ELISPOT)” value ([2]; listed as MPHOSPH1-A33-9-1474) does the source give for “DLQKWREER (a peptide derived from MPHOSPH1) [SEQ ID NO: 119]” here?
A: Peptide-specific IFN-gamma production was observed

Q: Which results are given for “DYLQVCLRIR (a peptide derived from MPHOSPH1) [SEQ ID NO: 170]”?
A: peptide-specific IFN-gamma production of CTL clone (ELISA) ([3]; CTL clone by limiting dilution, against C1R-A33 pulsed with the peptide): showed a peptide-specific IFN-gamma production; IFN-gamma production by CTL line (ELISA) ([3]; CTL line against C1R-A33 pulsed with the peptide): CTL lines that produce IFN-gamma in a peptide-specific manner were established; also recorded: observed; peptide-specific IFN-gamma production (ELISPOT) ([2]; listed as MPHOSPH1-A33-10-57): Peptide-specific IFN-gamma production was observed

Q: With “SIIGVNLATK (a peptide derived from MPHOSPH1) [SEQ ID NO: 53]” as the sequence, how does the “peptide-specific IFN-gamma production (ELISPOT)” value ([1]; listed as MPHOSPH1-A11-10-1675) read?
A: Peptide-specific IFN-gamma production was observed

Q: Which “peptide-specific IFN-gamma production (ELISPOT)” value ([1]; listed as MPHOSPH1-A11-9-1227) does the source give for “SSARTQNLK (a peptide derived from MPHOSPH1) [SEQ ID NO: 12]” here?
A: Peptide-specific IFN-gamma production was observed

Q: What about the “peptide-specific IFN-gamma production of CTL clone (ELISA)” value ([4]; listed as MPHOSPH1-A11-9-1227) of the same sequence?
A: showed a peptide-specific IFN-gamma production

Q: And the “IFN-gamma production by CTL line (ELISA)” value ([4]; listed as MPHOSPH1-A11-9-1227)?
A: CTL lines that produce IFN-gamma in a peptide-specific manner were established; also recorded: observed

Q: How did the “peptide-specific IFN-gamma production (ELISPOT)” value ([2]; listed as MPHOSPH1-A33-9-1663) turn out when “SSKKTYSLR (a peptide derived from MPHOSPH1) [SEQ ID NO: 48]” was run?
A: peptide-specific IFN-gamma production was not observed

Q: “STSFEISRNK (a peptide derived from MPHOSPH1) [SEQ ID NO: 52]” was tested. Which “IFN-gamma production of peptide-specific CTL clone” value ([5]; against COS7 cells expressing both MPHOSPH1 and HLA-A*11:01) did it give?
A: showed IFN-gamma production

Q: What about the “IFN-gamma production of peptide-specific CTL clone” value ([5]; against negative control COS7 cells expressing either one of MPHOSPH1 and HLA-A*11:01, listed as MPHOSPH1-A11-10-1546) of the same sequence?
A: a significant IFN-gamma production was not shown; also recorded: a significant IFN-gamma production was not observed

Q: What about the “peptide-specific IFN-gamma production (ELISPOT)” value ([1]; listed as MPHOSPH1-A11-10-1546) of the same sequence?
A: Peptide-specific IFN-gamma production was observed

Q: What about the “peptide-specific IFN-gamma production of CTL clone (ELISA)” value ([4]; listed as MPHOSPH1-A11-10-1546) of the same sequence?
A: showed a peptide-specific IFN-gamma production

Q: And the “IFN-gamma production by CTL line (ELISA)” value ([4]; listed as MPHOSPH1-A11-10-1546)?
A: CTL lines that produce IFN-gamma in a peptide-specific manner were established; also recorded: observed

Q: “TINEFQNLK (a peptide derived from MPHOSPH1) [SEQ ID NO: 4]” was tested. Which “peptide-specific IFN-gamma production (ELISPOT)” value ([1]; listed as MPHOSPH1-A11-9-739) did it give?
A: peptide-specific IFN-gamma production was not observed

Q: “TSSLIINNK (a peptide derived from MPHOSPH1) [SEQ ID NO: 5]” was tested. Which “peptide-specific IFN-gamma production (ELISPOT)” value ([1]; listed as MPHOSPH1-A11-9-762) did it give?
A: Peptide-specific IFN-gamma production was observed
